Assay: stability of MMST in water without stabilizers
Assay type: physicochemical
Details: stability declines at higher concentrations
Experimental: In a preferred embodiment of a composition according to the first aspect of the invention, the composition comprises monomethylsilanetriol (MMST). Monomethylsilanetriol (MMST, MeSiOH3 or Si(OH)3CH3) is an organosilanol. […] This organosilanol is highly bioavailable. […] MMST can advantageously be used without stabilizers in silicon equivalent concentrations up to 300 mg/l. The stability of MMST is dependent on concentration and declines at higher concentrations. The stability can further be enhanced by the use of stabilizing agents. In a preferred embodiment the stabilizing agent is based on phenol or polyphenol as described above. The same reasoning applies, mutatis mutandis, with respect to stabilizing effect on the free hydroxyl groups.

Compound: C[Si](O)(O)O [MMST, monomethylsilanetriol]
- silicon equivalent concentration usable without stabilizers: up to 300 mg/l
